The Solubility is how much of the substance goes into solution per volume. A word on the solubility: it is the dissolved amount per volume that the medium holds.

Consider two compounds from patent publication US7144862B2, “Orally administered peptides to ameliorate atherosclerosis” (The Regents of the University of California, priority 2000, dated 2006).

Values joined by “and” are separate entries in the source; they are usually repeats but may differ in a detail not shown here. Equal values may be shown once. Bounds are passed on as bounds.

Data set [1] in a line: Plasma total and HDL cholesterol after oral D-4F. The conditions noted are these: for Mean HDL-cholesterol / plasma total cholesterol concentration: apo E null mice. The format is in vivo, mouse. As for the experimental part:
Protein (Navab et al. (2000) J Lipid Res. 41: 1481–1494) and cholesterol (Van Lenten et al. (2001) Circulation, 103: 2283–2288) content of lipoproteins and statistical analyses were performed as described by Van Lenten et al. (2001) Circulation, 103: 2283–2288, with significance defined as P<0.05.

In data set [2] the test system is LDL receptor null mice on a Western diet. The data set is described as follows: Aortic root lesions, oral gavage twice daily for 6 weeks. The format is in vivo, mouse. The conditions noted are these: oral gavage twice daily for 6 weeks (2.5 mg in liposomes). As for the experimental part:
Groups of LDL receptor null mice were placed on a Western diet and were given by oral gavage, 100 μl of saline alone (Saline), n=4 animals, or 100 μl of liposomes without D-4F (Liposomes), n=5 animals, or 2.5 mg D-4F peptide in 100 μl liposomes (D-4F in liposomes), n=6 animals, twice daily for 6 weeks. The mice were bled, and subsequently sacrificed, aortic root fixed, sectioned and the extent of Oil Red O staining in fatty streak lesions quantified.
Female LDL receptor null or apo E null mice on a C57BL/6J background were purchased from the Jackson Laboratory, Bar Harbor, Me. The LDL receptor null mice were maintained on Purina chow diet (Ralston Purina Co.) until they were 4 weeks old when they were switched to a Western diet (Teklad, Madison, Wis., diet # 88137) for 6 weeks. The apo E null mice were maintained on Purina chow diet throughout the study LDL receptor null mice received the test peptide or a vehicle control by gastric gavage twice daily for the periods indicated in the figure legends. […]
Mice were bled under anesthesia from the retro-orbital venous plexus, in accordance with protocols approved by the UCLA Animal Research Committee. Atherosclerotic lesions were measured as previously described^9.

Data set [3] relates to mice infected with Influenza A virus. The format is in vivo, mouse. Conditions: 20 micrograms daily injected after infection.
In data set [4] the test system is human artery wall cell cocultures. The data set is described as follows: Lipoproteins from mice given peptide by gavage tested in human artery wall cell cocultures (monocyte chemotactic activity). The conditions noted are these: 4F, 100 μg by oral gavage, LDL receptor deficient mice, blood after 6 hrs.
Method: Groups of LDL receptor-deficient mice (n=3) were administered the D-peptides or the saline vehicle by gavage. […] Blood was collected from retroorbital sinus under mild anesthesia 17 hrs later. LDL was isolated from plasma by FPLC. Cocultures of artery wall cells were incubated with medium alone (NO ADDITION), control LDL from normal subjects (LDL), LDL plus control HDL from normal subjects (+HDL). […] The cocultures were incubated for 4 hrs at 37° C. in the presence of 10% LPDS. The supernatants were then discarded, the cocultures were washed and incubated with culture medium without serum or LPDS for an additional 4 hrs. This conditioned medium was collected and analyzed for monocyte chemotactic activity. The values are mean±SD of quadruplicate cocultures.
Blood was collect after 6 hrs, plasma HDL and LDL were isolated by gel filtration (FPLC) and examined in the cocultures. […] Human LDL at 200 μg protein/ml was added to human artery wall cell cocultures together with human HDL (hHDL) at 350 μg protein/ml or mouse HDL (mHDL) at 100 μg cholesterol/ml taken from mice that received saline (Saline Rx) or L-4F (L-4F Rx) or D-4F (D-4F Rx) and monocyte chemotactic activity was determined as described herein. […] On the right, mouse LDL (mLDL) was isolated from mice receiving saline (Saline Rx) or L-4F (L4F Rx) or D-4F (D-4F Rx) and was added at 100 μg cholesterol/ml to the artery wall cell cocultures without HDL and monocyte chemotactic activity determined. Values are mean±SD) for four wells in two independent experiments.
Either saline or 2F synthesized from D amino acids or from L amino acids was instilled in the stomachs of mice by gavage (instillation in the stomach by tube). After gavage the mice were bled and their LDL isolated and added to the human artery wall cell cocultures.
The animals were bled 1.5, 3 or 6 hours later and their HDL, LDL, and VLDL/IDL isolated.
Human aortic endothelial and smooth muscle cells were isolated and cultured as previously described (Id.). Cellular oxidation of LDL in the presence and absence of HDL was determined as described (Id.). Human blood monocytes were isolated after obtaining informed consent and monocyte chemotaxis was determined as described previously^5.
Data set [5] can be described thus: DSC, chain melting transition of DMPC. The format is physicochemical. The conditions noted are these: DMPC/peptide 100:1 (mol/mol). How it is done:
(§1) A known amount of phospholipid was dissolved in chloroform. For one set of samples, peptide was dissolved in methanol and added to a solution of DiPoPE in chloroforn/methanol (2:1, v:v). For both, pure lipid samples and the organic solutions of lipid and peptide, solvent was removed under a slow stream of nitrogen. Residual solvent was removed under vacuum. […] For DMPC, four consecutive scans with a 60 minute equilibration time between scans were taken. DSC thermograms were analyzed using the software provided by MicroCal Inc., Amherst, Mass., and Origin, version 5.0.
The effect of these 18A analogues on the chain melting transition of multilamellar vesicles of DMPC was studied by DSC using peptide-lipid mixtures at 100:1 lipid/peptide molar ratio.
A general note: In DSC, transitions show as peaks or steps in heat flow.

Data set [6] in a line: Circular dichroism, percent helicity. Type of data set: physicochemical. As for the experimental part:
Briefly, spectra were obtained using a cell with a 0.1 cm path length and measurements were taken every nm from 260 nm to 190 nm at 25° C. All the CD spectra were signal averaged by adding four scans, base line corrected and smoothed. Peptide solutions in PBS, pH 7.4, were used at a concentration of 11 μM. Peptide-DMPC complexes (1:20 mol:mol) were used to determine the effect of lipid binding on the helicity of these peptides. These complexes were prepared by adding the appropriate volume of peptide solution to DMPC multilamellar vesicles. DMPC multilamellar vesicles were prepared as follows: A known amount of lipid was dissolved in ethanol and the solvent was removed by evaporating slowly under a thin stream of nitrogen. Residual solvent was removed by storing the lipid film under vacuum overnight. An appropriate volume of PBS, pH 7.4 was added to the thin lipid film to give the required final concentration of DMPC.
For orientation: CD spectra are sensitive to the conformation of chiral molecules.

For a further data set, the system named is C57 BL6 mice. Description: Diet-induced lesion formation with 2F. The format is in vivo, mouse. The text has this: It follows that in this mouse model, inhibition of LDL-induced monocyte chemotaxis is more anti-atherogenic than LCAT activation. Since the peptides 2F and 4F are similar in activating LCAT, and 4F and 5F are similar in removing “seeding molecules” from LDL, the peptide 4F may serve as a reagent to distinguish between the importance of LCAT activation and the inhibition of LDL-induced monocyte chemotaxis in different atherosclerosis-sensitive mouse models. If the inhibition of LDL-induced chemotaxis is more important than the LCAT-activating ability, then 4F should be better peptide to use as an inhibitor of atherosclerosis since this peptide is more soluble than the peptides 5F, 6F and 7F.

A short description of data set [7]: DSC, bilayer to hexagonal phase transition of DiPoPE. Type of data set: physicochemical. Conditions: heating scan rate 37°/h. How it is done:
as §1
In the current study we prepared the peptide-lipid mixtures in two ways. One was by adding the peptide in organic solvent to the lipid in organic solvent followed by depositing the material as a film and subsequently hydrating with buffer. In the other method, the peptide and lipid were mixed after each was hydrated separately. If the mixture comes to equilibrium prior to the DSC analysis, it should not matter how the peptide and lipid are originally mixed. However, membrane systems can equilibrate slowly, in which case there may be more peptide in the lipid when it was incorporated at high concentrations into the lipid film.

Data set [8] deals with human artery wall cell cocultures. Description: LDL-induced monocyte chemotactic activity with the homologous series of peptides (Example 3). The format is cell-based. The conditions noted are these: peptide at 100 μg/ml, LDL 250 μg protein/ml, 8 h. How it is done: Microtitre plates were treated with 0.1% gelatin at 37° C. overnight. HASMC were added at a confluent density of 1×10^5 cells/cm^2. […] HAEC were subsequently added at 2×10^5 cells/cm^2 and were allowed to grow, forming a complete monolayer of confluent HAEC in two days. In all experiments, HAEC and autologous HASMC (from the same donor) were used at passage levels of four to six. […] The cocultures were treated with native LDL(250 μg protein/ml) or presence of HDL (350 μg protein/ml) or peptides for 8 h.

Data set [9] is described as follows: Surface pressure measurements: monolayer exclusion pressure. The format is physicochemical. Conditions: EPC monolayer; reproducibility ± 1 dyn/cm. How it is done:
An insoluble monolayer of egg phosphatidylcholine (EPC) was spread at the air-water interface in a Teflon dish at room temperature to give an initial surface pressure (πi) in the range of 5–45 dyn/cm. A solution of peptides in PBS containing 1.5M Gdn. HCl was carefully injected in to the subphase to give a final concentration of 50 μg/dL. The Gdn. HCl was diluted in the subphase to a final concentration of ≦1 mM to allow the peptides to renature. The subphase was stirred continuously and the increase in EPC monolayer surface pressure (Δπ) was recorded until a steady state value was obtained. The value of the initial surface pressure (πi) at which the peptides no longer penetrate the EYPC monolayer i.e. the exclusion pressure (πe), was calculated by extrapolating the πi vs Δπ linear regression fit to Δπ=0 dyn/cm.

Data set [10] in a line: Right angle light scattering, dissolution of EPC MLVs. The format is physicochemical. The conditions noted are these: 105 μM EPC, equimolar peptide, 25° C., 30 min. As for the experimental part: EPC MLVs were prepared by evaporating a solution of EPC (Avanti Polar, AL) under nitrogen and hydrating the lipid film with phosphate-buffered saline (pH 7.4). […] Turbidity clarification was monitored for 30 min.

Data set [11] is described as follows: Non-denaturing PAGE, self-association. The format is physicochemical. The conditions noted are these: 100 and 250 μg/ml. How it is done: Non-denaturing and SDS-PAGE and was carried out using the method of Laemmli (1970) Nature 227: 680–685. Premade Novex gels were used and the gel was stained with Coomassie blue to identify the protein bands.
A further data set in a line: Solubility in PBS. The conditions noted are these: in PBS. Type of data set: physicochemical. As for the experimental part: The peptides were purified on a preparative Vydac C4 column by reversed-phase (RP)-HPLC using water (with 0.1% trifluoroacetic acid) and acetonitrile (0.1% trifluoroacetic acid). The purity and the retention times of the peptides were determined on an analytical Vydac C18 column using a gradient of 25%-58% acetonitrile in water containing 0.1% TFA. The purity of these peptides was also confirmed by mass spectrometry. The mass was in agreement with the calculated molecular weight. Although both the 3F peptides and 4F have additional Phe residues compared to 2F, the retention times of these peptides on the C18 column are not very different (˜22 min). A sudden increase in the retention time is apparent with 5F, 6F and 7F (˜26 min). With increasing number of Phe residues, the solubility of these peptides in PBS decreases.

Where [12] appears, read: LDL receptor null mice, Western diet, gavage twice daily 6 weeks.
Where [13] appears, read: 2.5 mg/mouse/day in drinking water.
The mark [14] stands for this setting: 5.0 mg/mouse/day in drinking water.

Consider `CC(=O)N[C@H](CC(=O)O)C(=O)N[C@H](Cc1c[nH]c2ccccc12)C(=O)N[C@H](Cc1ccccc1)C(=O)N[C@H](CCCCN)C(=O)N[C@H](C)C(=O)N[C@H](Cc1ccccc1)C(=O)N[C@H](Cc1ccc(O)cc1)C(=O)N[C@H](CC(=O)O)C(=O)N[C@H](CCCCN)C(=O)N[C@@H](C(=O)N[C@H](C)C(=O)N[C@H](CCC(=O)O)C(=O)N[C@H](CCCCN)C(=O)N[C@H](Cc1ccccc1)C(=O)N[C@H](CCCCN)C(=O)N[C@H](CCC(=O)O)C(=O)N[C@H](C)C(=O)N[C@H](Cc1ccccc1)C(N)=O)C(C)C` [Peptide D-4F, Ac-D-W-F-K-A-F-Y-D-K-V-A-E-K-F-K-E-A-F-NH2], for which, in [1] (setting [12]), the Total cholesterol is 761 ± 69 mg/dL and the “mean HDL-cholesterol level” value came to 73 ± 8.7 mg/dL. For the same compound, in data set [1] (setting [13]), the “Mean HDL-cholesterol” value worked out at 38.7 ± 5 mg/dL and the “plasma total cholesterol concentration” value worked out at 534 ± 12.3 mg/dL. Further, in data set [1] (setting [14]), the “Mean HDL-cholesterol” value is 43.4 ± 6 mg/dL and the “plasma total cholesterol concentration” value came to 579 ± 4.6 mg/dL. For the same compound, the “reduction in atherosclerotic lesions” value in data set [2] was 79% and 81%. For the same compound, in [3], the “biologically active oxidized phospholipids in the aorta after influenza A infection” value is on record as “not generated beyond background” and the “plasma paraoxonase levels after influenza A infection” value was “did not fall”. In addition, in data set [4], the HDL protective capacity result is reported as “enhance HDL protective capacity” and the “LDL-induced monocyte chemotactic activity (mouse LDL)” value was “decrease LDL-induced monocyte chemotactic activity”.

Turning to “Ac-DWLKAFYDKVAEKLKEAF-NH2 [Peptide 2F, Ac-D-W-L-K-A-F-Y-D-K-V-A-E-K-L-K-E-A-F-NH2]”, the “TCM(° C.)” value in data set [5] (1.5 mM DMPC, chain melting transition temperature) was 23.2 °C. Besides, the “ΔHCM (kcals/mol)” value in data set [5] (enthalpy of the transition) is 4.5 kcals/mol. Moreover, the “ΔT1/2 (° C.)” value in data set [5] (width at half maximum of the transition) is 0.5 °C. Also, the “Percent Helicity PBS” value in [6] (11 μM peptide in PBS) was determined as 55%. The “Percent Helicity DMPC” value in data set [6] (11 μM peptide, Peptide: DMPC 1:20 (mol/mol)) was 72%. Further, the mean lesion area with C57 BL6 mice (2F-administered mice, n=15, PBS control 14.7±1.8) is reported as 13.2±1.7 μm^2×10^−3. The “inhibition of diet-induced lesion formation” value in the data set on C57 BL6 mice (C57 BL6 mice) is on record as “did not significantly inhibit diet-induced lesion formation”. The “shift in TH of DiPoPE with mol fraction of peptide” value in data set [7] is “linear increase in TH”. Moreover, the “inhibition of LDL-induced monocyte chemotaxis” value in [8] is “some inhibitory activity”. For the same compound, in [9], the “Monolayer Exclusion Pressure(πc)” value is listed as 38 dyn/cm. Besides, in data set [10], the “clarification of EPC MLVs” value is “clarified the EPC MLVs to a similar extents”. The “self-association on non-denaturing PAGE” value in data set [11] is reported as “forms aggregates in a concentration dependent manner”. Moreover, in “Solubility in PBS”, the “Solubility” value was over 2000 µg/mL. Moreover, the solubility in “Solubility in PBS” (read-out: Solubility) was 1250 to 1400 µg/mL.
